Measurements published in patent US4298727A, “3',4'-Dideoxykanamycin A and 1-N-(S)-α-hydroxy-ω-aminoalkanoyl) derivatives thereof” (Zaidan Hojin Biseibutsu Kagaku KenkyuKai, priority 1979, dated 1981).
Converted amounts (≈) assume the structure as drawn. Read-outs that look alike come from different tables or passages of the source.

Legend:
resistant bacteria [1] = conditions: in words, background art; cited from earlier work
Serratia 7 = test: MIC, standard serial dilution on nutrient agar; format: cell-based; conditions: Serratia, 7, 18 h
[2] = system: Staphylococcus aureus MS 9610; test: MIC, standard serial dilution on nutrient agar; format: cell-based
Proteus vulgaris BAC = test: MIC, standard serial dilution on nutrient agar; format: cell-based
[3] = system: Staphylococcus aureus MS 9883; test: MIC, standard serial dilution on nutrient agar; format: cell-based
[4] = system: Klebsiella pneumoniae 22 #3038; test: MIC, standard serial dilution on nutrient agar; format: cell-based
Enterobacter HAU = test: MIC, standard serial dilution on nutrient agar; format: cell-based
Erwinia 7-22 = test: MIC, standard serial dilution on nutrient agar; format: cell-based; conditions: 722, 37° C., 18 hours
Serratia BOT = test: MIC, standard serial dilution on nutrient agar; format: cell-based
Serratia CAT = test: MIC, standard serial dilution on nutrient agar; format: cell-based
Proteus rettgeri AUB = test: MIC, standard serial dilution on nutrient agar; format: cell-based; conditions: Providencia rettgeri
[5] = system: Staphylococcus epidermides 109; test: MIC, standard serial dilution on nutrient agar; format: cell-based
Enterobacter 666 = test: MIC, standard serial dilution on nutrient agar; format: cell-based; conditions: 37° C., 18 hours
Pyocyanique = test: MIC, standard serial dilution on nutrient agar; format: cell-based; conditions: 18 h
[6] = system: Pseudomonas aeruginosa A3; test: MIC, standard serial dilution on nutrient agar; format: cell-based
Klebsiella HOU = test: MIC, standard serial dilution on nutrient agar; format: cell-based
[7] = system: Staphylococcus aureus APOI; test: MIC, standard serial dilution on nutrient agar; format: cell-based
[8] = system: Staphylococcus aureus 209P; test: MIC, standard serial dilution on nutrient agar; format: cell-based
Providencia Pv 37 = test: MIC, standard serial dilution on nutrient agar; format: cell-based; conditions: PV37, 37° C., 18 hours
Sarcina lutea PCI 1001 = test: MIC, standard serial dilution on nutrient agar; format: cell-based; conditions: Micrococcus luteus, PCI1001, 18 h
Klebsiella THO = test: MIC, standard serial dilution on nutrient agar; format: cell-based
Providencia 19 = test: MIC, standard serial dilution on nutrient agar; format: cell-based; conditions: Providencia, 19, 18 h
[9] = system: Escherichia coli K-12 ML 1629; test: MIC, standard serial dilution on nutrient agar; format: cell-based; conditions: K12ML1629, 37° C., 18 hours
Providencia ZAO = test: MIC, standard serial dilution on nutrient agar; format: cell-based
Klebsiella BRIA = test: MIC, standard serial dilution on nutrient agar; format: cell-based
Escherichia coli K-12 = test: MIC, standard serial dilution on nutrient agar; format: cell-based; conditions: K12, 37° C., 18 hours
resistant bacteria [10] = conditions: in words, from Table 1
Description: The minimum inhibitory concentrations (mcg/ml) of the new compounds of this invention against various microorganisms were determined according to a standard serial dilution method using nutrient agar incubation medium at 37° C., the estimation being made after 18 hours incubation. For comparison purpose, the MIC. of kanamycin A, amikacin and dibekacin was also determined under the same test conditions.

[11] = Proteus vulgaris BAC, nutrient agar, 37° C., 18 hours, read-out: MIC.
[12] = MS9883, Staphylococcus aureus MS 9883, nutrient agar, 37° C., 18 hours, read-out: MIC.
[13] = Serratia CAT, nutrient agar, 37° C., 18 hours, read-out: MIC.
[14] = Staphylococcus aureus 209P, nutrient agar, 37° C., 18 hours, read-out: MIC.
[15] = Providencia ZAO, nutrient agar, 37° C., 18 hours, read-out: MIC.
[16] = Klebsiella BRIA, nutrient agar, 37° C., 18 hours, read-out: MIC.
[17] = Staphylococcus aureus, MS9610, 18 h
[18] = Pseudomonas aeruginosa, A3, 18 h

| Molecule | activity against resistant bacteria (resistant bacteria [1]) | MIC (Serratia 7) [µg/mL] | MIC (Proteus vulgaris BAC; [11]) [µg/mL] | MIC [3, 12] [µg/mL] | MIC (Enterobacter HAU; Enterobacter, 18 h) [µg/mL] | MIC (Erwinia 7-22) [µg/mL] | MIC (Serratia CAT; [13]) [µg/mL] | MIC (Proteus rettgeri AUB; 18 h) [µg/mL] | MIC (Enterobacter 666) [µg/mL] | MIC (Pyocyanique) [µg/mL] | MIC ([7]; Staphylococcus aureus, 18 h) [µg/mL] | MIC [8, 14] [µg/mL] | MIC (Providencia Pv 37) [µg/mL] | MIC (Sarcina lutea PCI 1001) [µg/mL] | MIC (Klebsiella THO; Klebsiella, 18 h) [µg/mL] | MIC (Providencia 19) [µg/mL] | MIC [9] [µg/mL] | MIC (Providencia ZAO; [15]) [µg/mL] | MIC (Klebsiella BRIA; [16]) [µg/mL] | MIC (Escherichia coli K-12) [µg/mL] | further results |
| --- | --- | --- | --- | --- | --- | --- | --- | --- | --- | --- | --- | --- | --- | --- | --- | --- | --- | --- | --- | --- | --- |
| 1-N-((S)-2-hydroxy-4-aminobutyryl)-5-O-β-D-xylofuranosyl- or ribofuranosyl-neamine [butirosins] | active against some kanamycin- and ribostamycin-resistant bacteria |  |  |  |  |  |  |  |  |  |  |  |  |  |  |  |  |  |  |  |  |
| NCC1CCC(O)C(OC2C(N)CC(NC(=O)C(O)CN)C(OC3OC(CO)C(O)C(N)C3O)C2O)O1 (racemic) [Compound No. 3, 1-N-(DL-2-hydroxy-3-aminopropionyl)-3',4'-dideoxykanamycin A] |  | 6.25 (≈ 11.6 µM) | 3.12 (≈ 5.78 µM) | 3.12 (≈ 5.78 µM) | 25 (≈ 46.3 µM) | 1.56 (≈ 2.89 µM) | 12.5 (≈ 23.2 µM) | 6.25 (≈ 11.6 µM) | 1.56 (≈ 2.89 µM) | 50 (≈ 92.7 µM) | 1.56 (≈ 2.89 µM) | 3.12 (≈ 5.78 µM) | 6.25 (≈ 11.6 µM) | 6.25 (≈ 11.6 µM) | 1.56 (≈ 2.89 µM) | 6.25 (≈ 11.6 µM) | 1.56 (≈ 2.89 µM) | 12.5 (≈ 23.2 µM) | 3.12 (≈ 5.78 µM) | 1.56 (≈ 2.89 µM) | MIC ([2]; MS9610, Staphylococcus aureus MS 9610, nutrient agar, 37° C., 18 hours, read-out: MIC.): 3.12 µg/mL (≈ 5.78 µM); MIC ([4]; Klebsiella pneumoniae 22 #3038, nutrient agar, 37° C., 18 hours, read-out: MIC.): 3.12 µg/mL (≈ 5.78 µM); MIC (Serratia BOT; Serratia BOT, nutrient agar, 37° C., 18 hours, read-out: MIC.): 12.5 µg/mL (≈ 23.2 µM); MIC ([5]; Staphylococcus epidermides 109, nutrient agar, 37° C., 18 hours, read-out: MIC.): 3.12 µg/mL (≈ 5.78 µM); MIC ([6]; Pseudomonas aeruginosa A3, nutrient agar, 37° C., 18 hours, read-out: MIC.): 3.12 µg/mL (≈ 5.78 µM); MIC (Klebsiella HOU; Klebsiella HOU, nutrient agar, 37° C., 18 hours, read-out: MIC.): 3.12 µg/mL (≈ 5.78 µM) |
| NCC[C@H](O)C(=O)N[C@@H]1C[C@H](N)[C@@H](O[C@H]2O[C@H](CN)[C@@H](O)[C@H](O)[C@H]2O)[C@H](O)[C@H]1O[C@H]1O[C@H](CO)[C@@H](O)[C@H](N)[C@H]1O [Amikacin, 1-N-((S)-2-hydroxy-4-aminobutyryl)-kanamycin A] | cannot be inactivated by the kanamycin-resistant bacteria | 12.5 (≈ 21.3 µM) |  | 6.25 (≈ 10.7 µM) | 50 (≈ 85.4 µM) | 1.56 (≈ 2.66 µM) |  |  | 1.56 (≈ 2.66 µM) | 50 (≈ 85.4 µM) | 1.56 (≈ 2.66 µM) |  | 12.5 (≈ 21.3 µM) | 3.12 (≈ 5.33 µM) |  | 12.5 (≈ 21.3 µM) | 1.56 (≈ 2.66 µM) |  | 6.25 (≈ 10.7 µM) | 1.56 (≈ 2.66 µM) | MIC [2, 17]: 3.12 µg/mL (≈ 5.33 µM); MIC (Proteus vulgaris BAC; Proteus vulgaris, 18 h): 3.12 µg/mL (≈ 5.33 µM); MIC ([4]; Klebsiella pneumoniae, 18 h): 3.12 µg/mL (≈ 5.33 µM); MIC (Serratia BOT; Serratia, 18 h): 12.5 µg/mL (≈ 21.3 µM); MIC (Serratia CAT; Serratia, 18 h): 12.5 µg/mL (≈ 21.3 µM); MIC (Proteus rettgeri AUB; Proteus rettgeri AUB, nutrient agar, 37° C., 18 hours, read-out: MIC.): 6.25 µg/mL (≈ 10.7 µM); MIC ([5]; Staphylococcus, 109, 18 h): 3.12 µg/mL (≈ 5.33 µM); MIC [6, 18]: 1.56 µg/mL (≈ 2.66 µM); MIC (Klebsiella HOU; Klebsiella, 18 h): 12.5 µg/mL (≈ 21.3 µM); MIC ([8]; Staphylococcus aureus, 209P, 18 h): 3.12 µg/mL (≈ 5.33 µM); MIC (Klebsiella THO; Klebsiella THO, nutrient agar, 37° C., 18 hours, read-out: MIC.): 6.25 µg/mL (≈ 10.7 µM); MIC (Providencia ZAO; Providencia, 18 h): 12.5 µg/mL (≈ 21.3 µM) |
| NCC1CCC(O)C(OC2C(N)CC(N)C(OC3OC(CO)C(O)C(N)C3O)C2O)O1 (stereo not drawn) [Compound No. 1, 3',4'-dideoxykanamycin A] |  | > 100 | 3.12 (≈ 6.89 µM) |  |  | > 100 | 12.5 (≈ 27.6 µM) | > 100 | 100 (≈ 221 µM) | > 100 |  | 3.12 (≈ 6.89 µM) | > 100 | 12.5 (≈ 27.6 µM) | 6.25 (≈ 13.8 µM) | 100 (≈ 221 µM) | 6.25 (≈ 13.8 µM) | 12.5 (≈ 27.6 µM) |  | 6.25 (≈ 13.8 µM) | MIC [2, 17]: 6.25 µg/mL (≈ 13.8 µM); MIC ([3]; Staphylococcus aureus, MS9883, 18 h): 6.25 µg/mL (≈ 13.8 µM); MIC ([4]; Klebsiella pneumoniae, 18 h): > 100 µg/mL; antibacterial activity against various resistant bacteria (resistant bacteria [10]): remarkably higher antibacterial activity against various resistant bacteria than the parent kanamycin A; MIC (Enterobacter HAU; Enterobacter HAU, nutrient agar, 37° C., 18 hours, read-out: MIC.): 12.5 µg/mL (≈ 27.6 µM); MIC (Serratia BOT; Serratia, 18 h): 50 µg/mL (≈ 110 µM); MIC ([5]; Staphylococcus, 109, 18 h): 6.25 µg/mL (≈ 13.8 µM); MIC [6, 18]: 6.25 µg/mL (≈ 13.8 µM); MIC (Klebsiella HOU; Klebsiella, 18 h): > 100 µg/mL; MIC ([7]; Staphylococcus aureus APOI, nutrient agar, 37° C., 18 hours, read-out: MIC.): 3.12 µg/mL (≈ 6.89 µM); MIC (Klebsiella BRIA; Klebsiella, 18 h): > 100 µg/mL |
